Data published in ChEMBL document CHEMBL1201862, “PubChem BioAssay data set” (2004).
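96-well plates; 48 h exposure; 5 concentrations. Endpoints by linear interpolation between flanking doses. Not reached: highest tested concentration assigned. Here, GI50 denotes the concentration required for 50% inhibition of growth.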 Active and inactive are the calls of the source. No stated cut-off is given here; in the data, active = GI50 up to about 1.1 µM and inactive = higher.

How the values were obtained:
Test in all cases: DTP human tumour cell line panel, 48 h
[1] = tested on: SW-620
[2] = tested on: SF-295
[3] = tested on: PC-3
[4] = tested on: SK-OV-3
[5] = tested on: HOP-92
[6] = tested on: NCI/ADR-RES
[7] = tested on: LOX IMVI
[8] = tested on: SR
[9] = tested on: CCRF-CEM
[10] = tested on: SK-MEL-2
[11] = tested on: Hs-578T
[12] = tested on: BT-549
[13] = tested on: NCI-H460
[14] = tested on: 786-0
[15] = tested on: NCI-H522
[16] = tested on: OVCAR-5
[17] = tested on: SK-MEL-28
[18] = tested on: K562
[19] = tested on: Malme-3M
[20] = tested on: HOP-62

Measured: GI50

Cc1cc(O)cc2c1c(=O)c1ccccc1n2C
inactive: [1] > 100 µM | [2] 52.2 µM | [3] > 100 µM | [4] 75.2 µM | [5] 39.4 µM | [6] 68.1 µM | [7] > 100 µM | [8] 48.5 µM | [9] > 100 µM | [10] > 100 µM | [11] 37.1 µM | [12] 50.6 µM | [13] 5.33 µM | [14] 44.4 µM | [15] 34.8 µM | [16] > 100 µM

CCOP(=O)(OCC)C(NC(=O)C(C(F)(F)F)C(F)(F)F)c1ccccc1 (centres undefined)
inactive: [1] > 100 µM | [17] > 100 µM | [2] > 100 µM | [18] 61.2 µM | [19] > 100 µM | [3] > 100 µM | [4] > 100 µM | [5] > 100 µM | [6] > 100 µM | [7] > 100 µM | [8] 59.6 µM | [9] 36.6 µM | [10] > 100 µM | [11] > 100 µM | [12] > 10 µM | [13] > 100 µM | [14] > 100 µM | [20] > 100 µM | [16] > 100 µM

CN(C)c1ccc(/C=N\NC(=O)c2ccccc2Nc2ccccc2C(=O)N/N=C/c2ccc(N(C)C)cc2)cc1
inactive: [1] > 100 µM | [17] 90.4 µM | [2] > 100 µM | [18] > 100 µM | [19] 38.5 µM | [3] > 100 µM | [4] > 100 µM | [5] > 100 µM | [6] > 100 µM | [7] 92.9 µM | [8] > 100 µM | [9] > 100 µM | [10] > 100 µM | [11] > 100 µM | [12] > 100 µM | [13] > 100 µM | [14] > 100 µM | [20] > 100 µM | [16] 28.5 µM

COc1ccc2c(c1)CCN=C2Cc1ccccc1CCCl
inactive: [1] 26.1 µM | [17] 32.6 µM | [2] 20.7 µM | [18] 18 µM | [3] 25.8 µM | [4] 39.3 µM | [5] 23.7 µM | [6] 19.1 µM | [8] 51.2 µM | [9] 20.7 µM | [10] 25.5 µM | [11] 62.4 µM | [12] 44.2 µM | [13] 15.4 µM | [14] 25.3 µM | [15] 19.6 µM | [20] 36.5 µM | [16] 40.5 µM

Oc1ccc2c(c1)-c1c(c3cc(O)ccc3n1CCN1CCOCC1)CC2
inactive: [1] 23 µM | [17] 18.5 µM | [2] 20.1 µM | [18] 20 µM | [3] 18.4 µM | [4] 23.9 µM | [5] 26.1 µM | [6] 24.8 µM | [7] 17.6 µM | [8] 18.4 µM | [9] 22.8 µM | [10] 17.6 µM | [11] 27 µM | [12] 14.5 µM | [14] 21.9 µM | [15] 17.4 µM | [20] 19.5 µM | [16] 34.8 µM

Cc1c(/N=N/c2ccc(Cl)cc2)c(-c2ccccc2)n(C2OC(CO)C(O)C(O)C2O)c(=S)c1C#N (centres undefined)
inactive: [1] 17.6 µM | [17] 15.4 µM | [2] 24.9 µM | [18] 13.6 µM | [19] 25.5 µM | [3] 10.6 µM | [4] 16.9 µM | [5] 14.2 µM | [6] 13.6 µM | [7] 18.2 µM | [8] 20.6 µM | [9] 10 µM | [10] 18.8 µM | [11] 21.5 µM | [12] 16 µM | [13] 18.8 µM | [14] 20.2 µM | [20] 19.1 µM | [16] 19.2 µM
